These results are taken from PMC9148066, “The Medicinal Halophyte Frankenia laevis L. (Sea Heath) Has In Vitro Antioxidant Activity, α-Glucosidase Inhibition, and Cytotoxicity towards Hepatocarcinoma Cells” (Plants, 2022).

Broadly, the EC50 is the concentration that produces a half-maximal response.

One data set in a line: RSA on DPPH radical. The following applies: DPPH 120 µM, 30 min. The protocol:
(§1) The absorbance was measured in a microplate reader (Biotek Synergy 4), and the activity was calculated as a percentage of inhibition, relative to a control containing DMSO in place of the sample.
(§2) The extracts were tested on DPPH and ABTS, as described elsewhere. The samples were mixed with radical solutions (DPPH: 120 µM; ABTS: 7.4 mM) in 96-well flat-bottom microtitration plates and were incubated in darkness at RT for 30 and 6 min, respectively. The synthetic antioxidant BHT (E320), used as a preservative in food and cosmetics, was used as a positive control at the same concentrations of the samples. The absorbance was measured at 517 and 734 nm for DPPH and ABTS, respectively.
(In general: Loss of DPPH colour is used to gauge radical scavenging.)

The next data set can be described thus: RSA on ABTS radical. The following applies: ABTS 7.4 mM, 6 min. The protocol:
as §1, §2

Data set [1] relates to human lung carcinoma cells (A549). Details: method as in PMID 19471192. To be noted: cited from earlier work.
The nature of data set [2]: Copper chelating activity (CCA). The following applies: pyrocatechol violet, CuSO4.
Description: (§5) The CCA and ICA of the extracts and the positive control (EDTA) were assessed in 96-well microplates according to the methods described in Rodrigues et al. [53]. For CCA, the samples were mixed with 50 mM Na acetate buffer (pH 6), 4 mM pyrocatechol violet, and 50 µg/mL CuSO4 solution. For ICA, the samples were mixed with distilled water and 0.1 mg/mL FeCl2 solution. After 30 min, a 40 mM ferrozine solution was added. The change in absorbance was measured at 632 and 562 nm for CCA and ICA, correspondingly.
Data set [3] can be described thus: Iron chelating activity (ICA). The following applies: FeCl2, ferrozine.
Description: as §5
Another data set has as its target α-glucosidase. Details: method as in doi:10.1016/j.sajb.2020.01.011. The following applies: cited from earlier work.
Data set [4] has as its system HepG2 cells. To be noted: cited from earlier work.
The nature of data set [5]: Cellular viability assay (MTT), S17. The format is cell-based. The following applies: mouse, S17 bone marrow stromal cells (non-tumoral), read-out: S17 cytotoxic activity EC50. Here is the method: (§3) The HepG2 (human hepatocellular carcinoma) and S17 (murine bone marrow stromal) cell lines were maintained in Dulbecco’s modified eagle medium (DMEM) culture medium supplemented with 10% heat-inactivated fetal bovine serum (FBS), 1% L-glutamine (2 mM), and 1% penicillin (50 U/mL)/streptomycin (50 μg/mL) and were maintained at 37 °C in humidified atmosphere with 5% CO2.
(§4) HepG2 and S17 cells were plated in 96-well tissue plates at a density of 5 × 10^3 cells/well and were incubated for 24 h. Then, the extracts were applied at several concentrations (3.125, 6.25, 12.5, 25, 50 and 100 µg/mL) for 72 h. The 3-(4,5-dimethylthiazol-2-yl)-2,5-diphenyltetrazolium bromide (MTT) colorimetric test was used to determine the cellular viability (Biotek Synergy 4), as formerly detailed. […] The selectivity index (SI) was obtained by dividing the EC50 value of non-tumoral cells (S17) by the EC50 of tumoral cells (HepG2).

The test system of data set [6] is HepG2 cells. The experiment in a line: Cellular viability assay (MTT), HepG2. The format is cell-based. To be noted: Homo sapiens, 72 h, read-out: HepG2 cytotoxic activity EC50. The protocol: as §3, §4

Marks after values point to notes of the source that are not given here.

Regarding `Cc1cc(C(C)(C)C)c(O)c(C(C)(C)C)c1` [BHT, butylated hydroxytoluene], the “RSA-DPPH EC50” value in the data set “RSA on DPPH radical” is recorded as 0.11 ± 0.00 ^a mg/mL. For the same molecule, the “RSA-ABTS EC50” value in the data set “RSA on ABTS radical” was 0.06 ± 0.00 ^a mg/mL.

As to `CC1(C)CCCC2(C)OC(=O)C=C12` (centres unmarked) [Dihydroactinidiolide], the “Cytotoxic effect on A549” value in data set [1] is listed as “strong cytotoxic effect”.

In the case of `O=C(O)CN(CCN(CC(=O)O)CC(=O)O)CC(=O)O` [EDTA, ethylenediamine tetraacetic acid], in [2], the “CCA EC50” value is listed as 0.17 ± 0.00 ^a mg/mL. For the same molecule, the “ICA EC50” value in [3] is 0.06 ± 0.00 ^a mg/mL.

With `CC1(C)C[C@H](O)C[C@@]2(C)OC(=O)C=C12` [Loliolide], the “α-glucosidase EC50” value on α-glucosidase (approx. equivalent of the µM value) is recorded as “approx. 76 µg/mL”. Moreover, on α-glucosidase, the EC50 is 388 µM. In the data set with HepG2 cells [4], the “Cytotoxicity against HepG2 cells” value is on record as “selective cytotoxicity”.

In the case of `COc1cc([C@@H]2c3cc4c(cc3[C@@H](O[C@@H]3O[C@@H]5CO[C@@H](C)O[C@H]5[C@H](O)[C@H]3O)[C@H]3COC(=O)[C@H]23)OCO4)cc(OC)c1O` [etoposide], the EC50 at 72 h in data set [5] was determined as 7.86 ± 0.25 µg/mL. Moreover, the EC50 with HepG2 cells [6] is 1.45 ± 0.15 µg/mL.

As to `CC1(C)C[C@H](O)C[C@]2(C)OC(=O)C=C12` [isololiolide, Isololiolide], the “Cytotoxicity against HepG2 cells” value in the data set on HepG2 cells [4] is recorded as “selective cytotoxicity”.
